Results on 3 molecules are retold here after patent publication US12685315B2, “Herbicidal combination” (UPL do Brasil Industria e Comercio de Insumos Agropecuarios …, priority 2019, dated 2026).

What all share (type): in vivo
The subject of assay [1] is Brachiaria decumbens (BRADC). The assay can be described thus: Field trial of triple mixes of amicarbazone, pre and post-emergence weed control. To be noted: Table 1, dose g ai/ha: Amicarbazone 75, Isoxaflutole 15, Atrazine 250, mix 75 + 15 + 250. As for the experimental part:
(§1) Field trials were done to evaluate the efficacy and synergism of the triple mixes of amicarbazone with other herbicides for the control of weeds in pre and post-emergence application.
(§2) The composition of the present invention was applied. This test was performed for species of weeds: Grasses namely BRADC=Brachiaria decumbens, CCHEC=Cenchrus echinatus, ELEIN=Eleusine indica, TRCIN=Digitaria insularis and Broadleaves namely IAQGR=Ipomoea grandifolia, EPHHL=Euphorbia heterophylla, COMBE=Commelina benghalensis. Data were collected at various period after application of the composition to the soil and calculated.

The subject of assay [2] is Cenchrus echinatus (CCHEC). The description is as above. As to conditions: Table 2, Post-Emergence, dose g ai/ha: Amicarbazone 75, Isoxaflutole 15, Atrazine 250, mix 75 + 15 + 250. The method, then:
as §1, §2

Assay [3] deals with Ipomoea grandifolia (IAQGR). The assay can be described thus: Field trial of triple mixes of amicarbazone, pre-emergence weed control. To be noted: dose g ai/ha: Amicarbazone 75, Isoxaflutole 15, Atrazine 250, mix 75 + 15 + 250. The method, then:
as §1, §2

A further assay concerns Digitaria insularis. The assay can be described thus: Field trial of triple mixes of amicarbazone, post-emergence weed control. To be noted: dose g ai/ha: Amicarbazone 75, S-metolachlor 300, Atrazine 250, mix 75 + 300 + 250. The method, then:
as §1, §2

The next assay concerns Eleusine indica. The assay can be described thus: Field trial of triple mixes of amicarbazone, pre and post-emergence weed control. To be noted: Table 10, dose g ai/ha: Amicarbazone 75, Mesotrione 38, Ametryn 250, mix AMC + AME + MST 75 + 38 + 250. As for the experimental part:
as §1, §2

The test system of a further assay is Commelina benghalensis. The assay can be described thus: Field trial of triple mixes of amicarbazone, pre-emergence weed control. To be noted: dose g ai/ha: Amicarbazone 75, Mesotrione 38, Ametryn 250, mix AMC + AME + MST 75 + 38 + 250. As for the experimental part:
as §1, §2

Take `CCNc1nc(Cl)nc(NC(C)C)n1` [Atrazine]: the “% Control” value in assay [1] (Post-Emergence, 7 DAA) amounted to 37.5%; in assay [1] (Post-Emergence, 21 DAA), 21.3%; in assay [1] (Post-Emergence, 28 DAA) it was 23.8%; in assay [1] (Pre-Emergence, 7 DAA), 0.0%; in assay [1] (Pre-Emergence, 21 DAA) it was 0.0%; in assay [1] (Pre-Emergence, 28 DAA), 0.0%. Further, the “% Control” value in assay [2] (7 DAA) was 47.5%; in assay [2] (28 DAA), 26.3%; in assay [2] (35 DAA), 23.8%; in assay [3] (Table 3, 14 DAA), 0.0%; in assay [3] (Table 3, 21 DAA), 0.0%; in assay [3] (Table 3, 28 DAA) it was 0.0%. In addition, the “% Control” value with Digitaria insularis (Table 9, 21 DAA) stood at 21.3%; with Digitaria insularis (Table 9, 28 DAA), 13.8%; with Digitaria insularis (Table 9, 35 DAA), 7.5%.

With `CS(=O)(=O)c1ccc(C(=O)C2C(=O)CCCC2=O)c([N+](=O)[O-])c1` [Mesotrione], the “% Control” value in the assay with Eleusine indica (Post-Emergence, 14 DAA) came to 57.5%; in the assay on Eleusine indica (Post-Emergence, 21 DAA) it was 43.8%; with Eleusine indica (Post-Emergence, 28 DAA), 35.0%; with Eleusine indica (Pre-Emergence, 14 DAA), 26.3%; with Eleusine indica (Pre-Emergence, 21 DAA), 2.5%; in the assay with Eleusine indica (Pre-Emergence, 28 DAA), 0.0%. The “% Control” value in the assay with Commelina benghalensis (Table 11, 21 DAA) was 67.5%; in the assay with Commelina benghalensis (Table 11, 28 DAA) it was 65.0%; in the assay on Commelina benghalensis (Table 11, 35 DAA), 51.3%.

With `CCNc1nc(NC(C)C)nc(SC)n1` [Ametryn], the “% Control” value is 53.8% in the assay on Eleusine indica (Post-Emergence, 14 DAA); 27.5% in the assay with Eleusine indica (Post-Emergence, 21 DAA); 22.5% in the assay with Eleusine indica (Post-Emergence, 28 DAA); 51.3% with Eleusine indica (Pre-Emergence, 14 DAA); 42.5% with Eleusine indica (Pre-Emergence, 21 DAA); 35.0% in the assay on Eleusine indica (Pre-Emergence, 28 DAA). The “% Control” value was 15.0% with Commelina benghalensis (Table 11, 21 DAA); 8.8% in the assay on Commelina benghalensis (Table 11, 28 DAA); 2.5% in the assay on Commelina benghalensis (Table 11, 35 DAA).
